Data published in ChEMBL document CHEMBL1128746, “Aminoalkylindoles: structure-activity relationships of novel cannabinoid mimetics” (J Med Chem, 1995).
pIC50: −log10 of the molar value.

Experiments:
Mus musculus = organism: Mus musculus; experiment: Concentration required to inhibit electrically induced contractions in isolated mouse vas deferens preparation in vitro; format: functional
Cannabinoid receptor 1 = Cannabinoid receptor 1 (Rattus norvegicus, UniProt P20272); experiment: […] [3H]WIN-55212 binding to Cannabinoid receptor 1 in rat cerebellum membranes.; format: cell membranes, Membrane
Sequence of Cannabinoid receptor 1 (P20272 whole entry): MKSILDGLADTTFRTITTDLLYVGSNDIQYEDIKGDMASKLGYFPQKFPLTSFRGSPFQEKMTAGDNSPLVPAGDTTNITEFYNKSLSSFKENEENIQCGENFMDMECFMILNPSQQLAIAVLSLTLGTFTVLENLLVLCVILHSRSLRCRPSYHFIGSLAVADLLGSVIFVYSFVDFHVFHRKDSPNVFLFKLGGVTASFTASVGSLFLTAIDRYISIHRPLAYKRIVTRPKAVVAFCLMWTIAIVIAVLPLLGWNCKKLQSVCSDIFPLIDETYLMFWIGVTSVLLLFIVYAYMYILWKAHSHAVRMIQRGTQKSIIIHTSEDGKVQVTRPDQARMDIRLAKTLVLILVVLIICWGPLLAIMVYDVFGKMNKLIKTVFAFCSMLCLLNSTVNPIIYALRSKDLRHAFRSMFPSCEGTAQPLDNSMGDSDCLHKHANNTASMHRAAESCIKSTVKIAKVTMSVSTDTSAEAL

Compound	pIC50 (Mus musculus; Mus musculus)	pIC50 (Cannabinoid receptor 1)	pIC50 (Mus musculus)
COc1ccc(C(=O)c2c(C)n(CCCCN3CCOCC3)c3ccccc23)cc1	< 5.00		
O=C(c1cccc2occc12)c1cn(CCN2CCOCC2)c2ccccc12	8.11	7.62	
Cc1c(C(=O)c2ccc(C#N)c3ccccc23)c2ccccc2n1CCN1CCOCC1	7.82	7.82	
Cc1ccc2c(C(=O)c3cccc4ccccc34)cn(CCN3CCOCC3)c2c1	8.77	8.46	
Cc1c(C(=O)c2cccc3ccccc23)c2ccccc2n1CCN1CCOCC1C (stereo not given)	6.68	6.42	
Cc1c(C(=O)c2cccc3ccccc23)c2ccccc2n1CCN1CCOC(C)C1 (stereo not given)	7.52	7.23	
COc1ccc(C(=O)c2c(C)n(CCN3CCOCC3)c3cc(C)ccc23)cc1	< 5.00	5.73	
CC(Cn1cc(C(=O)c2cccc3ccccc23)c2ccccc21)N1CCOCC1 (stereo not given)	7.22	6.91	
COc1ccc(C(=O)c2c(C)n(CCN3CCOCC3)c3c(F)cccc23)cc1	7.14	6.24	
COc1ccc(C(=O)c2c(C)n(CCN)c3ccccc23)cc1	< 5.00		
COc1ccc(C(=O)c2c(C)n(CCN3CCOCC3)c3ccccc23)cc1 [PRAVADOLINE]	6.50	5.50	
O=C(c1cccc2ccccc12)c1cn(CCN2CCOCC2)c2ccccc12	8.20	8.11	
COc1ccc(C(=O)c2c(C)[nH]c3ccccc23)cc1	7.57		
Cc1ccc(C(=O)c2cn(CCN3CCOCC3)c3ccccc23)c2ccccc12	8.44	8.55	
O=C(c1ccc(O)c2ccccc12)c1cn(CCN2CCOCC2)c2ccccc12		8.47	
COc1ccc(C(=O)c2c(C)n(CC(=O)O)c3ccccc23)cc1	< 5.00		
CCN(CC)CCn1c(C)c(C(=O)c2ccc(OC)cc2)c2ccccc21	< 5.00		
Cc1c(C(=O)c2cccc3ccccc23)c2ccccc2n1CCN1CCOCC1	7.82	7.72	
Cc1c(C(=O)c2cccc3ccccc23)c2ccccc2n1CCCN1CCOCC1	6.95	6.82	
O=C(c1ccc2ccccc2c1)c1cn(CCN2CCOCC2)c2ccccc12	7.51	7.23	
Cc1c(C(=O)c2cccc3ncccc23)c2ccccc2n1CCN1CCOCC1	7.10	6.08	
COc1ccc(C(=O)c2c(C)n(CC[N+]3(C)CCOCC3)c3ccccc23)cc1	5.37		
CC(CN1CCOCC1)n1cc(C(=O)c2cccc3ccccc23)c2ccccc21 (stereo in doubt; -106)		7.48	7.92
COc1ccc(C(=O)c2c(C)n(CC(C)N3CCOCC3)c3ccccc23)cc1 (stereo not given)	< 5.00		
COc1ccc(C(=O)c2c(C)n(CCN3CCNCC3)c3ccccc23)cc1	< 5.00		
O=C(c1cn(CCN2CCOCC2)c2ccccc12)c1cccc2ccoc12	8.34	7.74	

Compound	pIC50 (Mus musculus; Mus musculus)	pIC50 (Cannabinoid receptor 1)	pIC50 (Mus musculus)
CCCCCc1cc(O)c2c(c1)OC(C)(C)[C@@H]1CCC(C)=C[C@@H]21 [DRONABINOL]	8.40		
Cc1c(C(=O)c2coc3ccccc23)c2ccccc2n1CCN1CCOCC1	7.28	6.96	
COc1cccc2c(C(=O)c3cccc4ccccc34)c(C)n(CCN3CCOCC3)c12		8.00	
Cc1c(C(=O)c2ccc3ccccc3n2)c2ccccc2n1CCN1CCOCC1	7.00	6.48	
COc1ccc(C(=O)c2cn(CCN3CCOCC3)c3ccccc23)c2ccccc12		8.85	
Cc1c(C(=O)c2cccc3ccccc23)c2ccc(Br)cc2n1CCN1CCOCC1		8.00	
Cc1c(C(=O)c2cccc(Cl)c2)c2ccccc2n1CCN1CCOCC1		5.88	
Cc1c(C(=O)c2ccc3cccnc3c2)c2ccccc2n1CCN1CCOCC1	7.06		
Cc1c(C(=O)c2ccnc3ccccc23)c2ccccc2n1CCN1CCOCC1	6.94	6.55	
O=C(c1cccc2ccccc12)c1cn(CCN2CCOCC2)c2ccc(F)cc12	8.14	7.46	
O=C(c1ccc2ncccc2c1)c1cn(CCN2CCOCC2)c2ccccc12	6.85	6.31	
Cc1c(C(=O)c2cccc3cccnc23)c2ccccc2n1CCN1CCOCC1	6.89	6.56	
COc1ccc(C(=O)c2c(C)n(CCN3CCOCC3C)c3ccccc23)cc1 (stereo not given)	< 5.00		
O=C(c1ccc2ccoc2c1)c1cn(CCN2CCOCC2)c2ccccc12	7.40	6.52	
CC(CN1CCOCC1)n1cc(C(=O)c2cccc3ccccc23)c2ccccc21 (racemic; form 2)			7.72
Cc1c(C(=O)c2cccc3ccccc23)c2ccccc2n1C(C)CN1CCOCC1 (racemic; form 2)		7.89	7.96
Cc1ccc(C(=O)c2c(C)n(CCN3CCOCC3)c3ccccc23)c2ccccc12	8.02	8.23	
CC(CN1CCOCC1)n1cc(C(=O)c2cccc3ccccc23)c2ccccc21 (racemic; form 1)		6.94	7.22
COc1ccc(C(=O)c2c(C)n(CCN3CCOCC3)c3cc(OC)ccc23)cc1	< 5.00	5.84	
Cc1c(C(=O)c2cccc3ccccc23)c2ccccc2n1C(C)CN1CCOCC1 (racemic; form 1)			7.25
CCc1c(C(=O)c2ccc(OC)cc2)c2ccccc2n1CCN1CCOCC1	< 5.00		
COc1ccc(C(=O)c2c(C)n(CCN3CCOC(C)C3)c3ccccc23)cc1 (stereo not given)	< 5.00		
Cc1c(C(=O)c2ccc(Br)c3ccccc23)c2ccccc2n1CCN1CCOCC1	7.47	8.16	
COc1ccccc1C(=O)c1c(C)n(CCN2CCOCC2)c2ccccc12	7.04	6.10	
COc1ccc(C(=O)c2c(C)n(CCN3CCOCC3)c3cc(Br)ccc23)cc1	< 5.00	6.29	
Cc1c(C(=O)c2ccc3occc3c2)c2ccccc2n1CCN1CCOCC1	6.90	6.45	

Compound	pIC50 (Mus musculus; Mus musculus)	pIC50 (Cannabinoid receptor 1)	pIC50 (Mus musculus)
COc1ccc(C(=O)c2c(C)n(CCN3CCOCC3)c3c(C)cccc23)cc1	6.75	5.81	
Cc1cccc(C(=O)c2c(C)n(CCN3CCOCC3)c3ccccc23)c1C		6.43	
Cc1cccc(C(=O)c2c(C)n(CCN3CCOCC3)c3ccccc23)c1		6.22	
O=C(c1c2ccccc2cc2ccccc12)c1cn(CCN2CCOCC2)c2ccccc12	< 5.00	5.53	
Cc1ccc(C(=O)c2c(C)n(CCN3CCOCC3)c3ccccc23)cc1	6.35	5.75	
O=C(c1ccc2occc2c1)c1cn(CCN2CCOCC2)c2ccccc12	7.55	6.86	
O=C(c1cccc2ccccc12)c1cn(CCCN2CCOCC2)c2ccccc12	8.01	7.37	
Cc1c(C(=O)c2cccc3ccccc23)c2ccccc2n1CCN1CCCCC1	7.18	7.43	
Cc1c(C(=O)c2cccc3ccccc23)c2ccccc2n1CCN1CCN(C)CC1	< 5.00		
Cc1c(C(=O)c2c3ccccc3cc3ccccc23)c2ccccc2n1CCN1CCOCC1	< 5.00		
O=C(c1cccc2ccccc12)c1cn(CCN2CCOCC2)c2ccc(O)cc12	7.70	7.15	
O=C(c1cccc2ccccc12)c1c(Cl)n(CCN2CCOCC2)c2ccccc12	8.21	8.00	
CCc1ccc(C(=O)c2c(C)n(CCN3CCOCC3)c3ccccc23)cc1	7.15	6.51	
O=C(c1cn(CCN2CCOCC2)c2ccccc12)C1CCCc2ccccc21 (stereo not given)	7.96	7.42	
Cc1c(C(=O)c2ccc3ncccc3c2)c2ccccc2n1CCN1CCOCC1	6.99	6.30	
Cc1c(C(=O)c2ccc3ccccc3c2)c2ccccc2n1CCN1CCOCC1	7.30	6.89	
COc1ccc(C(=O)c2c(C)n(CCN3CCOCC3)c3ccccc23)c2ccccc12	7.64	7.26	
CCCc1ccc(C(=O)c2c(C)n(CCN3CCOCC3)c3ccccc23)cc1		5.95	
COc1ccc(C(=O)c2c(C)n(CCN3CCSCC3)c3ccccc23)cc1		6.21	
COc1ccc(C(=O)c2cn(CCN3CCOCC3)c3ccccc23)cc1	7.00	6.41	
Cc1ccc(C(=O)c2c(C)n(CCN3CCOCC3)c3ccccc23)cc1C		6.85	
Cc1ccc2c(C(=O)c3cccc4ccccc34)c(C)n(CCN3CCOCC3)c2c1	7.82	7.96	
O=C(c1cccc2ccccc12)c1cn(CCN2CCOCC2)c2ccc(Br)cc12	7.72	6.73	
Cc1c(C(=O)c2cc3ccccc3o2)c2ccccc2n1CCN1CCOCC1	6.49	6.38	
